Results as given in US4542027A, “Laidlomycin phenylcarbamate” (Syntex (U.S.A.) Inc., priority 1984, dated 1985).

Columns and labels:
[1] = Stability at 60° C. in methanol-water, acetate buffer; format: physicochemical
Protocol: Laidlomycin phenylcarbamate, laidlomycin isopopylcarbamate and two laidlomycin esters were prepared and their relative stability at 60° C. methanol-water, acetate buffer was determined. A complete list of the esters and carbamates which were tested under these conditions follows: […]

[2] = tested on: Eimeria acervulina and Eimeria maxima; assay: Anticoccidial activity in broiler chicks challenged with Eimeria acervulina and Eimeria maxima; format: in vivo; settings: for Feed efficiency, feed/gain: 7 d; for Feed consumption / Gain / Final weight: cage of 12 chicks; for Final weight / Lesion scores, middle intestine / Lesion scores, upper intestine: 7 days after challenge; for Lesion scores, middle intestine / Lesion scores, upper intestine: scale 0 (least) to 4 (most severe)
Description: Broiler chicks were reared, 12 per cage, in wire-floored battery cages under conditions which prevented extraneous coccidial infections. All chicks received a nonmedicated starter diet ad libitum until 8 days of age. From 8 days of age until the end of the study, chicks received the test diets which contained either O, 99, 121, 143 or 165 ppm of laidlomycin phenylcarbamate per kg of feed. Three replicate pens per treatment were used for all levels of experimental compounds tested.
At 10 days of age, birds were orally challenged with 200,000 oocycts of the coccidia, Eimeria acervulina, and 20,000 oocysts of Eimeria maxima per bird. The birds were weighed immediately preceding the coccidial challenge and again 7 days later. At 7 days following coccidial challenge, all birds were killed and lesions in the upper and middle sections of the intestinal tracts of six preselected birds per cage were scored on a scale of 0 to 4 based upon their number and severity. Feed present at the time of coccidial challenge and remaining 7 days later was used to determine the effects of compounds upon total feed consumption and feed efficiency.

[3] = Stability in soybean millrun feed premix at 60° C.; format: physicochemical
Protocol: These materials were then stored at 60° C. and analyzed for starting material at one week. The premix composition is given in Table 5 and the stability data in Table 6.

rumen fluid [4] = assay: L(+)-Lactic acid production in in vitro rumen fluid fermentation; format: cell-based, steer; design: Lactic acid production rate: unit not given here
Protocol: (§1) Two separate fermentation models were used to evaluate effects of laidlomycin and laidlomycin phenylcarbamate upon volatile fatty acids (VFA) and lactic acid production. Test compounds were solubilized in absolute ethanol at concentrations of 1 mg/ml and were serially diluted twofold in absolute ethanol through six additional concentrations. Aliquots of 200 μl were transferred to 18×150 mm test tubes, which were used as incubation vessels, and the ethanol was evaporated.
(§2) For both fermentation models rumen fluid from a rumen-fistulated steer, consuming a 100% alfalfa hay diet, was obtained before the morning feeding. The fluid was strained through four layers of cheesecloth, mixed with an equal volume of CO2 -saturated buffer, and 10 ml was transferred to each of the incubation vessels. All tubes were fitted with gas-release stoppers under an atmosphere of CO2 and were incubated in a shaking waterbath at 39° C. […] This medium, designed to be microbiologically nonselective, encouraged VFA production with no accumulation of lactic acid. Buffer used to study lactic acid accumulation (table 1) contained 150 mmol of glucose/liter and had little buffering capacity. This medium favored growth of lactic acid-producing bacteria and allowed rapid production of lactic acid coupled with a precipitous drop in pH from pH 6.2 to less than pH 5 during the course of an incubation.
(§3) Fermentation was terminated at 9 h for the VFA fermentations and at 5.5 h for the lactic acid fermentations by addition of 2 ml of 25% metaphosphoric acid to the incubation tubes. Aliquots were frozen overnight, thawed, centrifuged at 30,000 × g for 10 min and the resulting supernatants analyzed for either L(+)-lactic acid or VFA. The L(+)-lactic acid was analyzed via a specific enzymatic assay in which the concentration of lactic acid in the fermentation broth was quantified by the increase in absorbance of light at 340 nm when nicotinamide adenine dinucleotide was reduced by lactic acid with the aid of L(+)-lactic dehydrogenase. VFA were analyzed via gas chromatography using a Varian chromatograph equipped with a flame ionization detector. Acids were separated on a glass column (0.64×182.9 cm) packed with 10% SP-1200/1% H3 PO4 on Chromosorb-WAW®, 80-100 mesh. This column was obtained pre-packed from Supelco, Inc., Bellefont, Pennsylvania. Chromatographic conditions included a column temperature of 145° C., an injector temperature of 190° C., a detector temperature of 190° C., a carrier gas flow of 45 ml/min and an injection volume of 1 μl.
(§4) Net production rates of all acids were calculated by subtracting the concentration of acids in the incubation fluid before incubation from the concentration determined in each tube after incubation. Molar proportions of acetic, propionic, and butyric acids produced were calculated by dividing the production rate of individual acids by the sum of the production rates of the three acids. Data were analyzed by analysis of variance (SAS, 1979). Comparisons (Duncan's multiple range test) of individual means were made when treatment effects (P<0.05) were indicated.

rumen fluid [5] = assay: Propionic acid production (VFA) in in vitro rumen fluid fermentation; format: cell-based, steer; design: Propionic acid production rate: unit not given here
Protocol: as §1, §2, §3, §4

[6] = in comparison with laidlomycin acylates
[7] = all non-zero concentrations, vs unmedicated

## CCC(=O)OC(C(C)C(=O)O)C(C)C1OC2(CCC(C)(C3CCC(C)(C4OC(C5OC(O)(COC(=O)Nc6ccccc6)C(C)CC5C)CC4C)O3)O2)CC(O)C1C (stereo not drawn) [Laidlomycin phenylcarbamate, laidlomycin phenylcarbamate]
[1]; 60° C., methanol-water, acetate buffer, read-out: t1/2 (converted)
  half-life: 32.7 days
[1]; [6]
  Stability in solution (in words): highly stable
[2]; 99 mg/kg of feed
  Feed efficiency, feed/gain: 2.21
  Feed consumption: 3.40 kg/7 d
  Gain: 1.54 kg/7 d
  Final weight: 3.86 kg
  Lesion scores, middle intestine: 1.43
  Lesion scores, upper intestine: 1.20
[2]; 121 mg/kg of feed
  Feed efficiency, feed/gain: 2.16
  Feed consumption: 3.19 kg/7 d
  Gain: 1.47 kg/7 d
  Final weight: 3.72 kg
  Lesion scores, middle intestine: 1.57
  Lesion scores, upper intestine: 1.23
[2]; 143 mg/kg of feed
  Feed efficiency, feed/gain: 2.19
  Feed consumption: 3.46 kg/7 d
  Gain: 1.58 kg/7 d
  Final weight: 3.97 kg
  Lesion scores, middle intestine: 1.47
  Lesion scores, upper intestine: 0.50
[2]; 165 mg/kg of feed
  Feed efficiency, feed/gain: 1.84
  Feed consumption: 3.47 kg/7 d
  Gain: 1.89 kg/7 d
  Final weight: 4.21 kg
  Lesion scores, middle intestine: 0.70
  Lesion scores, upper intestine: 0.66
[2]; all non-zero concentrations tested
  Protection against coccidiosis: protection against coccidiosis was afforded by all non-zero concentrations
[2]; [7]
  Lesion scores in the upper and middle intestines (in words): greatly reduced lesion scores in the upper and middle intestines
  Quantity of feed required per unit of gain (in words): halved the quantity of feed required per unit of gain
  Weight gain (in words): doubled weight gain
[3]; [6]
  Stability in feed premixes (in words): highly stable
[3]; soybean millrun feed premix, 60° C., one week, soybean millrun premix, 10% (w/w)
  remaining at 168 h: 100%
Rumen fluid [4]
  Lactic acid suppression (in words): surprisingly and unexpectedly high
Rumen fluid [4]; 0.31 μg/ml, 5.5 h
  Lactic acid production rate: 28.4
Rumen fluid [4]; 0.31 μg/ml, 5.5 h, read-out: Lactic acid production, percentage of control
  activity at 0.31 µg/mL: 102%
Rumen fluid [4]; 0.62 μg/ml, 5.5 h
  Lactic acid production rate: 27.7
Rumen fluid [4]; 0.62 μg/ml, 5.5 h, read-out: Lactic acid production, percentage of control
  activity at 0.62 µg/mL: 99%
Rumen fluid [4]; 1.25 μg/ml, 5.5 h
  Lactic acid production rate: 15.6
Rumen fluid [4]; 1.25 μg/ml, 5.5 h, read-out: Lactic acid production, percentage of control
  activity at 1.25 µg/mL: 56%
Rumen fluid [4]; 2.50 μg/ml, 5.5 h
  Lactic acid production rate: 6.1
  Lactic acid production, percentage of control: 21 % of control
Rumen fluid [4]; 2.50 μg/ml, 5.5 h, read-out: Lactic acid production, percentage of control
  activity at 2.5 µg/mL: 21%
Rumen fluid [4]; 5.00 μg/ml, 5.5 h
  Lactic acid production rate: 3.8
Rumen fluid [4]; 5.00 μg/ml, 5.5 h, read-out: Lactic acid production, percentage of control
  activity at 5 µg/mL: 13%
Rumen fluid [4]; 10.00 μg/ml, 5.5 h
  Lactic acid production rate: 4.0
Rumen fluid [4]; 10.00 μg/ml, 5.5 h, read-out: Lactic acid production, percentage of control
  activity at 10 µg/mL: 14%
Rumen fluid [4]; 20.00 μg/ml, 5.5 h
  Lactic acid production rate: 3.8
Rumen fluid [4]; 20.00 μg/ml, 5.5 h, read-out: Lactic acid production, percentage of control
  activity at 20 µg/mL: 13%
Rumen fluid [4]; over all concentrations tested
  Inhibition of lactic acid production relative to laidlomycin: superior to laidlomycin (P<0.05)
Rumen fluid [5]
  Propionate production enhancement (in words): surprisingly and unexpectedly high
Rumen fluid [5]; 0.31 μg/ml, 9 h
  Propionic acid production rate: 22.8
Rumen fluid [5]; 0.62 μg/ml, 9 h
  Propionic acid production rate: 23.4
Rumen fluid [5]; 1.25 μg/ml, 9 h
  Propionic acid production rate: 25.2
Rumen fluid [5]; 2.50 μg/ml, 9 h
  Propionic acid production rate: 25.7
Rumen fluid [5]; 5.00 μg/ml, 9 h
  Propionic acid production rate: 26.9
Rumen fluid [5]; 10.00 μg/ml, 9 h
  Propionic acid production rate: 27.0
Rumen fluid [5]; 20.00 μg/ml, 9 h
  Propionic acid production rate: 28.2
Rumen fluid [5]; 20.00 μg/ml, 9 h, 540 min
  Propionic acid production, percentage of control: 133 % of control
Rumen fluid [5]; 9 h, 0.31 μg/ml, 9 h, read-out: Propionic acid production, percentage of control
  activity at 0.31 µg/mL: 107%
Rumen fluid [5]; 9 h, 1.25 μg/ml, 9 h, read-out: Propionic acid production, percentage of control
  activity at 1.25 µg/mL: 118%
Rumen fluid [5]; 9 h, 2.50 μg/ml, 9 h, read-out: Propionic acid production, percentage of control
  activity at 2.5 µg/mL: 121%
Rumen fluid [5]; 9 h, 5.00 μg/ml, 9 h, read-out: Propionic acid production, percentage of control
  activity at 5 µg/mL: 126%
Rumen fluid [5]; 9 h, 10.00 μg/ml, 9 h, read-out: Propionic acid production, percentage of control
  activity at 10 µg/mL: 127%
Rumen fluid [5]; 9 h, 20.00 μg/ml, 9 h, read-out: Propionic acid production, percentage of control
  activity at 20 µg/mL: > 130%
Rumen fluid [5]; 9 h, read-out: Propionic acid production, percentage of control, 0.62 μg/ml, 9 h
  activity at 0.62 µg/mL: 110%
Rumen fluid [5]; over all concentrations
  Propionic acid production enhancement relative to laidlomycin: more potent than laidlomycin (P<0.05)
